Laboratory results from article PMC9600068, “New Approach Methods for Hazard Identification: A Case Study with Azole Fungicides Affecting Molecular Targets Associated with the Adverse Outcome Pathway for Cholestasis” (Cells, 2022).
pIC50: −log10 of the molar value.

Target: T1, bile salt export pump (BSEP) (Homo sapiens, UniProt O95342)
T1 construct: gene ABCB11
Experiment: inhibition of taurocholate transport in membrane preparations from HEK293 cells overexpressing human BSEP
Type: biochemical

T1 sequence (O95342 whole entry): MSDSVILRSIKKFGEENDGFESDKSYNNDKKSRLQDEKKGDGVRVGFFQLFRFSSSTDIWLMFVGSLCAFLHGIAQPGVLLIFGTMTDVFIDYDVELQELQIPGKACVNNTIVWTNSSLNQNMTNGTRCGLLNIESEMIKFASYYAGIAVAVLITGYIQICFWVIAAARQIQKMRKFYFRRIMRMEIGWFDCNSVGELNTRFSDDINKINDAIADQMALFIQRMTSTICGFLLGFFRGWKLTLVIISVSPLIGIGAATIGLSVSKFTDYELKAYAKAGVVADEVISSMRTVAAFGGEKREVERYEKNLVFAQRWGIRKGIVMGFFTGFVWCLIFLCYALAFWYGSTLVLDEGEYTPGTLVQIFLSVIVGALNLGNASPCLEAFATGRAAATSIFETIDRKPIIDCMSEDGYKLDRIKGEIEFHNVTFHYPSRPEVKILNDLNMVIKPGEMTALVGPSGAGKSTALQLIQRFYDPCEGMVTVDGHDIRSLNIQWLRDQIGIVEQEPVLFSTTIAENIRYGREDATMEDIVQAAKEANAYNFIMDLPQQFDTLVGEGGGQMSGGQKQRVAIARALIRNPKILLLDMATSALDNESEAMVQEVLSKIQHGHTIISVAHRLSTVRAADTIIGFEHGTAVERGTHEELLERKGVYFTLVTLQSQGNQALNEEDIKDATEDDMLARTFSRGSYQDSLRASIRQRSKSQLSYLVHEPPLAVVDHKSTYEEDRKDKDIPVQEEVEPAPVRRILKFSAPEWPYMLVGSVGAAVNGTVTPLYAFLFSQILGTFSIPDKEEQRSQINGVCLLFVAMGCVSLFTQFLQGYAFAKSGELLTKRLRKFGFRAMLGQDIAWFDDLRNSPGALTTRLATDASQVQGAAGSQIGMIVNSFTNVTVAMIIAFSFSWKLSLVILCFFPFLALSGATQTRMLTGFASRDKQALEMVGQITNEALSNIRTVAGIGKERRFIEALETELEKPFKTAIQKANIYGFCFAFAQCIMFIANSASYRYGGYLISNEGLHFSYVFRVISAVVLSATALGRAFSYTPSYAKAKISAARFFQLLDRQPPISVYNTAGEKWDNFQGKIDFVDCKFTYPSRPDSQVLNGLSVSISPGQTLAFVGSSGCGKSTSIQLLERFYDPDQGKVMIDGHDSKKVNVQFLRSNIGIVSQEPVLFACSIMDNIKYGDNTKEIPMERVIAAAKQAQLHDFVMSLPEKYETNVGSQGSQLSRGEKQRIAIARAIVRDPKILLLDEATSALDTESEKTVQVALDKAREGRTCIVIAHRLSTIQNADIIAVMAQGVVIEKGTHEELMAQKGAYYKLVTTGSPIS

SMILES: CCCC1COC(Cn2cncn2)(c2ccc(Cl)cc2Cl)O1 (centres unmarked) [Pi, propiconazole]
- pIC50: 4.10

SMILES: CC(C)(C)C(O)(CCc1ccc(Cl)cc1)Cn1cncn1 (centres unmarked) [Te, tebuconazole]
- pIC50: 4.42
